From patent publication US20230220387A1, “D-SERINE TRANSPORT MODIFIER AND SCREENING METHOD THEREOF, AND SCREENING METHOD OF D-SERINE TRANSPORTER PROTEIN” (Kagami Inc., priority 2019, published 2023)
Values belong to the compound of their own block, whether it stands above or below them.

Legend:
[1] = test system: HEK293 cells; experiment: [3H]D-serine transport in HEK293 cells; format: cell-based; conditions: endogenous ASCT2
Experimental: (§1) The cell lines HEK293 and Flp-In TREx 293 were cultured at 37° C. in a 5% CO2 environment, using Dulbecco's Modified Eagle Medium (DMEM) containing 10% fetal bovine serum (FBS), 100 units/ml Penicillin G and 100 μg/ml streptomycin (P/S). The cells were seeded in a Poly-D-lysine coated 24-well plate at 6×10^4 cells/well. After culturing for 3 days in DMEM Medium containing 10% FBS and P/S, the cell were used for transport activity measurement. Before transport activity measurement, the cells were washed with transport activity measurement buffer (PBS+1 g/L D-glucose) prewarmed to 37° C. and incubated for 10 minutes at 37° C. in 500 μL of buffer. The transport activity measurement was initiated by addition of D-[^3H]serine-containing transport activity buffer at the indicated concentration. The reaction product produced after addition was incubated at 37° C. for the indicated time. The reaction was suspended by removing the D-[^3H]serine-containing transport activity buffer, and the product was washed 3 times with thoroughly cooled transport activity buffer. The cells were dissolved with 500 μL of 0.1 N NaOH and incubated for at least one hour. Protein concentration of the cell lysate was measured by BCA protein assay. The lysate was mixed with 1 mL of Emulsifier Safe (PerkinElmer, MA, USA) and the radioactivity of the lysate was measured with a β-scintillation counter (LSC-8000, Hitachi). In transport activity measurement for Na^+, HBSS (+Na^+: 125 mM NaCl, −Na^+: choline chloride, 4.8 mM KCl, 1.2 mM MgSO4, 1.2 mM KH2PO4, 1.3 mM CaCl2), 5.6 mM D-glucose and 25 mM HEPES was used instead of PBS. For the inhibition experiment, a non-radioactive labeled compound was included as the uptake substrate as shown in the drawing.

[2] = biological target: T1, ASCT2 (Homo sapiens, UniProt Q15758); experiment: [3H]D-serine transport in HEK293 cells transfected with ASCT2; format: cell-based
T1 construct: expressed in transfected cells; host or cells: HEK293 cells
T1 sequence (Q15758 1-541): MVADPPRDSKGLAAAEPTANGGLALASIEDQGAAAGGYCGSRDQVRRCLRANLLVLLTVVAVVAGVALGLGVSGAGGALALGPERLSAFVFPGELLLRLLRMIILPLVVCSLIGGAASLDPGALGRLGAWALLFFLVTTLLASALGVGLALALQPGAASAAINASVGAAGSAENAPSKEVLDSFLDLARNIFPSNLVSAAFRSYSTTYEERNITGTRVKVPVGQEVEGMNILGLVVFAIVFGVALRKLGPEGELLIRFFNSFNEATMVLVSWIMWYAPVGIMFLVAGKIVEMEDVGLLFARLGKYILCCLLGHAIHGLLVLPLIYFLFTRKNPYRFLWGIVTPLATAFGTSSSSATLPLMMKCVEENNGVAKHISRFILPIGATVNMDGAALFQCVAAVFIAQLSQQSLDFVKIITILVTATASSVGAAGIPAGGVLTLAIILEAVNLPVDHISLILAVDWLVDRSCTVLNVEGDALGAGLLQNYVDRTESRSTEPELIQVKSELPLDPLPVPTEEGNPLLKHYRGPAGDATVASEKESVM
Experimental: The cell lines HEK293 and Flp-In TREx 293 were cultured at 37° C. in a 5% CO2 environment, using Dulbecco's Modified Eagle Medium (DMEM) containing 10% fetal bovine serum (FBS), 100 units/ml Penicillin G and 100 μg/ml streptomycin (P/S). The cells were seeded in a Poly-D-lysine coated 24-well plate at 6×10^4 cells/well. After culturing for 3 days in DMEM Medium containing 10% FBS and P/S, the cell were used for transport activity measurement. Before transport activity measurement, the cells were washed with transport activity measurement buffer (PBS+1 g/L D-glucose) prewarmed to 37° C. and incubated for 10 minutes at 37° C. in 500 μL of buffer. The transport activity measurement was initiated by addition of D-[^3H]serine-containing transport activity buffer at the indicated concentration. The reaction product produced after addition was incubated at 37° C. for the indicated time. The reaction was suspended by removing the D-[^3H]serine-containing transport activity buffer, and the product was washed 3 times with thoroughly cooled transport activity buffer. […] Protein concentration of the cell lysate was measured by BCA protein assay. The lysate was mixed with 1 mL of Emulsifier Safe (PerkinElmer, MA, USA) and the radioactivity of the lysate was measured with a β-scintillation counter (LSC-8000, Hitachi). […]

[3] = test system: Flp-In TREx 293 cell line; experiment: D-[3H]serine uptake in Flp-In TREx 293 cell line in the presence of inhibitors; format: cell-based; conditions: 10 minutes
Experimental: as §1

[4] = test system: mouse brush border membrane vesicles (BBMV); experiment: D-[3H]serine transport activity measurement with mouse BBMVs; format: biochemical
Experimental: Total mouse kidneys were extracted by perfusion using PBS buffer at pH 7.4, and then immediately frozen with liquid nitrogen and stored at −80° C. until use. The frozen kidneys were resuspended in buffer containing 20 mM Tris-HCl at pH 7.6, 250 mM mannitol, 1 mM EDTA and Complete EDTA-free protease inhibitor cocktail (Roche, Switzerland), and crushed using a PHYSCOTRON (Microtec Co., Ltd.). The sample was then homogenized using a Potter-Elvehjem homogenizer. After centrifugation at 1,000×g for 5 minutes at 4° C., the supernatant was centrifuged at 3,000×g for 5 minutes at 4° C. After centrifugation, the supernatant was mixed with 1 M MgCl2 at a final concentration of 11 mM MgCl2, and incubated on ice for 20 minutes. This was followed by centrifugation at 3,000×g for 15 minutes at 4° C., and then ultracentrifugation of the supernatant containing crude membrane vesicles at 438,000×g for 30 minutes at 4° C. The pellet remaining after ultracentrifugation (BBMVs) was suspended in buffer containing 20 mM Tris-HCl at pH 7.6 and 250 mM mannitol. The BBMVs were quantified using a BCA protein quantitation kit (Thermo Fisher Scientific). The BBMVs were cryopreserved at −80° C. until use. Before transport activity measurement, the cryopreserved BBMVs were thawed to allow introduction of potassium into the BBMVs, after which they were ultracentrifuged at 438,000×g for 30 minutes at 4° C., and the pellet was then suspended in buffer containing 10 mM Tris-HCl at pH 7.6, 100 mM KCl and 100 mM mannitol to a 5 mg/mL protein concentration, and the BBMV suspension was incubated on ice overnight. Before measurement of the transport activity, valinomycin was added to the BBMV sample to a final concentration of 5 μM and the mixture was incubated at room temperature for 30 minutes. […] The used filter was melted with Clear-sol I (Nacalai Tesque, Inc.) and the radioactivity on the filter was measured using a β-scintillation counter (LSC-8000, Hitachi).

[5] = biological target: T2, hSMCT1 (Homo sapiens, UniProt Q8N695); experiment: D-[3H]serine uptake in FlpIn293TR-hSLC5A8-3×FLAG stable cell line; format: cell-based; conditions: 20 μM D-[3H]serine, 10 minutes
T2 construct: A final pcDNA5-hSLC5A8_NM145913-3×FLAG positive clone was obtained and named “pcDNA5-hSLC5A8-3×FLAG”; expressed in transfected cells
T2 sequence (Q8N695 1-610): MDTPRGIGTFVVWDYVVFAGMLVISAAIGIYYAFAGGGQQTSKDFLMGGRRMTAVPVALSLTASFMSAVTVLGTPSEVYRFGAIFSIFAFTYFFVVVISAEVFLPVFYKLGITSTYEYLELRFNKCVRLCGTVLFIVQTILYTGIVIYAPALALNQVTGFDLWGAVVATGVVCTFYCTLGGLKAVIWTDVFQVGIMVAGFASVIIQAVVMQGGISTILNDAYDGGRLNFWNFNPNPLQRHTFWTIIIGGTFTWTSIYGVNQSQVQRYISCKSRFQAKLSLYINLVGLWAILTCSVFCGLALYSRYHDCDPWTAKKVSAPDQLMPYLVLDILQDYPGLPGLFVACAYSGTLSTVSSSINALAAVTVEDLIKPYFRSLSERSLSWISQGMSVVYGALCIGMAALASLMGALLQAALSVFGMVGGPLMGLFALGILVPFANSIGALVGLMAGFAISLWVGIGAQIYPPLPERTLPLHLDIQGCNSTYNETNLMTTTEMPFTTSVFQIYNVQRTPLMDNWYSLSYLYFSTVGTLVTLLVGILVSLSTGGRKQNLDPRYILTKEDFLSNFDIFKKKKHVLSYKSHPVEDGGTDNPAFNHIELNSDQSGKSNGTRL
Experimental: (§2) The stable cell line FlpIn293 TR was seeded in a poly-D-lysine-coated 24-well plate at 5×10^4 cells/well (Mock) or 6×10^4 cells/well (hSLC5A8 and hSLC5A12 cells), and after 24 hours, 1 mg/L doxycycline hyclate was added to induce recombinant gene expression. The cells were continuously cultured for 2 days and transport activity measurement was conducted at 80% to 90% confluence. In an ASCT2 knockdown experiment, the seeded cells were transfected after 12 hours with ASCT2 siRNA at 10 pmol/well, using Lipofectamine 3000. Before transport activity measurement, the cells were washed 3 times with transport activity buffer (PBS+1 g/L D-glucose) warmed to 37° C. and incubated for 10 minutes at 37° C. in 500 μL of buffer. The transport activity measurement was initiated by addition of D-[^3H]serine-containing transport activity buffer at the indicated concentration. The reaction product produced after addition was incubated at 37° C. for the indicated time. The reaction was suspended by removing the D-[^3H] serine-containing transport activity buffer, and the product was washed 3 times with thoroughly cooled transport activity buffer. […] Protein concentration of the cell lysate was measured by BCA protein assay. The lysate was mixed with 1 mL of Emulsifier Safe (PerkinElmer, MA, USA) and the radioactivity of the lysate was measured with a β-scintillation counter (LSC-8000, Hitachi). […]

[6] = biological target: T3, hSMCT2 (Homo sapiens, UniProt Q1EHB4); experiment: D-[3H]serine uptake in FlpIn293TR-hSLC5A12-3×FLAG stable cell line; format: cell-based; conditions: 20 μM D-[3H]serine, 10 minutes
T3 construct: expressed in transfected cells
T3 sequence (Q1EHB4 1-618): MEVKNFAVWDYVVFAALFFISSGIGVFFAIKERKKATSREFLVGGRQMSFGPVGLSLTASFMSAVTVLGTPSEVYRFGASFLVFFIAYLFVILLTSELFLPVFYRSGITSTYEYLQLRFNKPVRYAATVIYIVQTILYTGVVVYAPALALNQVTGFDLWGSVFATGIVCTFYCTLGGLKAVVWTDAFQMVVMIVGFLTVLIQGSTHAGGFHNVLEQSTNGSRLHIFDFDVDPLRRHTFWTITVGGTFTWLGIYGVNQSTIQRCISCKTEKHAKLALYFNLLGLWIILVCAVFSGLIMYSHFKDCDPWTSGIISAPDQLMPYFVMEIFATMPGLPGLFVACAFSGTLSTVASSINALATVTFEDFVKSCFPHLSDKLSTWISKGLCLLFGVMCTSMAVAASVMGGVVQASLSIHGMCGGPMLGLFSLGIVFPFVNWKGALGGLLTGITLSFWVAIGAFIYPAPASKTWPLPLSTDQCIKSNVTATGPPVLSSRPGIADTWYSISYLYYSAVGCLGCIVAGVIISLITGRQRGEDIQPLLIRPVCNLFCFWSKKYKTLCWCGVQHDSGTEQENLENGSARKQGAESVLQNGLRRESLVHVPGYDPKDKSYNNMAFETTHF
Experimental: as §2

[7] = test system: FlpIn293TR-hSLC5A12-3×FLAG (SMCT2)-stable cell line; experiment: Toxicity test (XTT) in SMCT2-stable cell line; format: cell-based; conditions: 500 μM ibuprofen added with D-serine to SMCT2 cells
Experimental: (§3) A toxicity test for stable cells was carried out using an FlpIn293TR-stable cell line. The cells were seeded in a poly-D-lysine-coated 96-well plate at 6.5×10^3 cells/well (Mock) and 8×10^3 cells/well (hSLC5A8 and hSLC5A12 cells), while in antibiotic-free DMEM+dialyzed FBS medium. After 24 hours, they were treated with L- or D-serine at different concentrations and 1 mg/L of doxycycline hyclate was added to induce recombination gene expression. For the ASCT2 knockdown experiment, the seeded cells were transfected after 12 hours with ASCT2 siRNA at 2 pmol/well, using Lipofectamine 3000. The effect of ibuprofen was analyzed by simultaneous addition with D-serine treatment. The cells were cultured for 2 days to 80% confluence. The proliferated cell count was determined by XTT measurement in the same manner as described above.

[8] = test system: FlpIn293TR-hSLC5A8-3×FLAG (SMCT1)-stable cell line; experiment: Toxicity test (XTT) in SMCT1-stable cell line; format: cell-based; conditions: 500 μM ibuprofen added with D-serine to SMCT1 cells
Experimental: as §3

- [3H]D-serine transport [2]: inhibited
Compound: NCCCC(=O)O [GABA, γ-aminobutyric acid]
- [3H]D-serine transport [1]: inhibit

Compound: N[C@@H](CCC(=O)Nc1ccc([N+](=O)[O-])cc1)C(=O)O [GPNA, L-γ-glutamyl-p-nitroanilide]
- Uptake of D-[3H]serine [3]: inhibited

Compound: CSCC[C@H](N)C(=O)O [L-methionine]
- Uptake of D-[3H]serine [3]: inhibited
- [3H]D-serine transport [1]: inhibited

Compound: C[C@@H](O)[C@H](N)C(=O)O [L-threonine]
- uptake activity inhibited ([4]; 2 mM L-threonine, 10 μM D-[3H]serine, measuring time 30 seconds): About 70%
- Uptake of D-[3H]serine [3]: inhibited
- [3H]D-serine transport [1]: inhibited

- D-[3H]serine transport [5]: inhibited
- D-[3H]serine transport [6]: inhibited
Compound: CC(=O)Oc1ccccc1C(=O)O [acetylsalicylic acid]

- D-[3H]serine transport [5]: inhibited
- D-[3H]serine transport [6]: inhibited
Compound: CC(C)Cc1ccc(C(C)C(=O)O)cc1 (centres unmarked) [ibuprofen]
- D-[3H]serine transport activity ([4]; 1 and 3 mM ibuprofen, 50 μM D-[3H]serine, 1 minute): strongly inhibited
- effect of ibuprofen on D-serine effect on cell proliferation [7]: reduced the D-serine effect to the same level as the Mock cells
- effect of ibuprofen on D-serine effect on cell proliferation [8]: reduced the D-serine effect to the same level as the Mock cells

Compound: O=C(O)c1cccnc1 [nicotinic acid]
- Na+-dependent uptake inhibited ([4]; 1 mM nicotinic acid, 10 μM D-[3H]serine, measuring time 30 seconds): approximately 30%

Compound: S-benzyl-L-cystine [Benzyl-Cys]
- Uptake of D-[3H]serine [3]: inhibited
